# According to PubChem BioAssay (NCI):
#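 Each compound was tested at five concentrations against cells in 96-well plates for 48 hours. TGI marks complete inhibition of growth.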
# How the values were obtained:
# Test in all cases: inhibition of tumour cell growth, NCI panel, 48 h
# NCI-H460 lung = system: NCI-H460 lung
# COLO 205 colon = system: COLO 205 colon
# UACC-62 melanoma = system: UACC-62 melanoma
# SF-268 CNS = system: SF-268 CNS
# DU-145 prostate = system: DU-145 prostate
# HT29 colon = system: HT29 colon
# OVCAR-4 ovarian = system: OVCAR-4 ovarian
# HOP-62 NSCLC = system: HOP-62 NSCLC
# CCRF-CEM leukemia = system: CCRF-CEM leukemia
# SN12C renal = system: SN12C renal
# 786-0 renal = system: 786-0 renal
# NCI-H226 lung = system: NCI-H226 lung
# LOX IMVI melanoma = system: LOX IMVI melanoma
# U251 CNS = system: U251 CNS
# SR leukemia = system: SR leukemia
# ACHN renal = system: ACHN renal
# SK-MEL-5 melanoma = system: SK-MEL-5 melanoma
# NCI-H522 lung = system: NCI-H522 lung
# MCF7 breast = system: MCF7 breast
# SNB-19 CNS = system: SNB-19 CNS
# SW-620 colon = system: SW-620 colon
# HCT-116 colon = system: HCT-116 colon
# MALME-3M melanoma = system: MALME-3M melanoma
# M14 melanoma = system: M14 melanoma
# HS 578T breast = system: HS 578T breast
# OVCAR-3 ovarian = system: OVCAR-3 ovarian
# K-562 leukemia = system: K-562 leukemia
# KM12 colon = system: KM12 colon
# SK-OV-3 ovarian = system: SK-OV-3 ovarian
# OVCAR-5 ovarian = system: OVCAR-5 ovarian
# MOLT-4 leukemia = system: MOLT-4 leukemia
# HCT-15 colon = system: HCT-15 colon
# EKVX NSCLC = system: EKVX NSCLC
# A549 NSCLC = system: A549 NSCLC
# NCI/ADR-RES ovarian = system: NCI/ADR-RES ovarian
# MDA-MB-435 = system: MDA-MB-435
# RXF 393 renal = system: RXF 393 renal
# RPMI-8226 leukemia = system: RPMI-8226 leukemia
# HL-60(TB) leukemia = system: HL-60(TB) leukemia
# IGROV1 ovarian = system: IGROV1 ovarian
# SF-539 CNS = system: SF-539 CNS
# MDA-N = system: MDA-N
# OVCAR-8 ovarian = system: OVCAR-8 ovarian
# HOP-92 NSCLC = system: HOP-92 NSCLC
# T-47D breast = system: T-47D breast
# TK-10 renal = system: TK-10 renal
# PC-3 prostate = system: PC-3 prostate
# SNB-75 CNS = system: SNB-75 CNS
# HCC-2998 colon = system: HCC-2998 colon
# SK-MEL-28 melanoma = system: SK-MEL-28 melanoma
# SK-MEL-2 melanoma = system: SK-MEL-2 melanoma
# CAKI-1 renal = system: CAKI-1 renal
# SF-295 CNS = system: SF-295 CNS
# A498 renal = system: A498 renal
# UACC-257 melanoma = system: UACC-257 melanoma
# UO-31 renal = system: UO-31 renal
# MDA-MB-231 breast = system: MDA-MB-231 breast
# BT-549 breast = system: BT-549 breast
# NCI-H23 lung = system: NCI-H23 lung
smiles,measurement,setting,value
Nc1nc(N)c2[nH]c(CNc3ccc(C(=O)O)cc3)nc2n1,TGI,NCI-H460 lung,> 100 µM
same,TGI,COLO 205 colon,> 100 µM
same,TGI,UACC-62 melanoma,> 100 µM
same,TGI,SF-268 CNS,> 100 µM
same,TGI,DU-145 prostate,> 100 µM
same,TGI,HT29 colon,> 100 µM
same,TGI,OVCAR-4 ovarian,> 100 µM
same,TGI,HOP-62 NSCLC,> 100 µM
same,TGI,CCRF-CEM leukemia,> 100 µM
same,TGI,SN12C renal,> 100 µM
same,TGI,786-0 renal,> 100 µM
same,TGI,NCI-H226 lung,> 100 µM
same,TGI,LOX IMVI melanoma,> 100 µM
same,TGI,U251 CNS,> 100 µM
same,TGI,SR leukemia,> 100 µM
same,TGI,ACHN renal,> 100 µM
same,TGI,SK-MEL-5 melanoma,> 100 µM
same,TGI,NCI-H522 lung,> 100 µM
same,TGI,MCF7 breast,> 100 µM
same,TGI,SNB-19 CNS,> 100 µM
same,TGI,SW-620 colon,> 100 µM
same,TGI,HCT-116 colon,> 100 µM
same,TGI,MALME-3M melanoma,> 100 µM
same,TGI,M14 melanoma,> 100 µM
same,TGI,HS 578T breast,> 100 µM
same,TGI,OVCAR-3 ovarian,> 100 µM
same,TGI,K-562 leukemia,> 100 µM
same,TGI,KM12 colon,> 100 µM
same,TGI,SK-OV-3 ovarian,> 100 µM
same,TGI,OVCAR-5 ovarian,> 100 µM
same,TGI,MOLT-4 leukemia,> 100 µM
same,TGI,HCT-15 colon,> 100 µM
same,TGI,EKVX NSCLC,> 100 µM
same,TGI,A549 NSCLC,> 100 µM
same,TGI,NCI/ADR-RES ovarian,> 100 µM
same,TGI,MDA-MB-435,> 100 µM
same,TGI,RXF 393 renal,> 100 µM
same,TGI,RPMI-8226 leukemia,> 100 µM
same,TGI,HL-60(TB) leukemia,> 100 µM
same,TGI,IGROV1 ovarian,> 100 µM
same,TGI,SF-539 CNS,> 100 µM
same,TGI,MDA-N,> 100 µM
same,TGI,OVCAR-8 ovarian,> 100 µM
same,TGI,HOP-92 NSCLC,> 100 µM
same,TGI,T-47D breast,> 100 µM
same,TGI,TK-10 renal,> 100 µM
same,TGI,PC-3 prostate,> 100 µM
same,TGI,SNB-75 CNS,> 100 µM
same,TGI,HCC-2998 colon,> 100 µM
same,TGI,SK-MEL-28 melanoma,> 100 µM
same,TGI,SK-MEL-2 melanoma,> 100 µM
same,TGI,CAKI-1 renal,> 100 µM
same,TGI,SF-295 CNS,> 100 µM
same,TGI,A498 renal,> 100 µM
same,TGI,UACC-257 melanoma,> 100 µM
same,TGI,UO-31 renal,> 100 µM
same,TGI,MDA-MB-231 breast,> 100 µM
same,TGI,BT-549 breast,> 100 µM
same,TGI,NCI-H23 lung,> 100 µM
COc1ccc(CC2c3cc(Oc4cc(CC5c6cc(OC)c(OC)cc6CCN5C)ccc4O)c(OC)cc3CCN2C)cc1 (stereo not drawn),TGI,NCI-H460 lung,14.1 µM
same,TGI,COLO 205 colon,14.7 µM
same,TGI,UACC-62 melanoma,15.6 µM
same,TGI,SF-268 CNS,17 µM
same,TGI,DU-145 prostate,6.34 µM
same,TGI,HT29 colon,8.15 µM
same,TGI,OVCAR-4 ovarian,8.77 µM
same,TGI,HOP-62 NSCLC,14.9 µM
same,TGI,CCRF-CEM leukemia,1.57 µM
same,TGI,SN12C renal,14.8 µM
same,TGI,786-0 renal,9.33 µM
same,TGI,NCI-H226 lung,18.6 µM
same,TGI,LOX IMVI melanoma,10.7 µM
same,TGI,U251 CNS,11.9 µM
same,TGI,SR leukemia,4.6 µM
same,TGI,ACHN renal,13.5 µM
same,TGI,SK-MEL-5 melanoma,14.4 µM
same,TGI,NCI-H522 lung,14.1 µM
same,TGI,MCF7 breast,12.2 µM
same,TGI,SNB-19 CNS,12.5 µM
same,TGI,SW-620 colon,7.29 µM
same,TGI,HCT-116 colon,4.6 µM
same,TGI,MALME-3M melanoma,17.6 µM
same,TGI,M14 melanoma,12.1 µM
same,TGI,HS 578T breast,19.3 µM
same,TGI,OVCAR-3 ovarian,15.1 µM
same,TGI,K-562 leukemia,5.28 µM
same,TGI,KM12 colon,5.33 µM
same,TGI,SK-OV-3 ovarian,16.5 µM
same,TGI,OVCAR-5 ovarian,16.6 µM
same,TGI,MOLT-4 leukemia,12.9 µM
same,TGI,HCT-15 colon,4.6 µM
same,TGI,EKVX NSCLC,15.9 µM
same,TGI,A549 NSCLC,13.4 µM
same,TGI,NCI/ADR-RES ovarian,14.4 µM
same,TGI,MDA-MB-435,9.88 µM
same,TGI,RXF 393 renal,12 µM
same,TGI,RPMI-8226 leukemia,10.1 µM
same,TGI,HL-60(TB) leukemia,15.5 µM
same,TGI,IGROV1 ovarian,16.2 µM
same,TGI,SF-539 CNS,16.8 µM
same,TGI,MDA-N,13.7 µM
same,TGI,OVCAR-8 ovarian,13.4 µM
same,TGI,HOP-92 NSCLC,14.6 µM
same,TGI,T-47D breast,12.8 µM
same,TGI,TK-10 renal,11 µM
same,TGI,PC-3 prostate,11.4 µM
same,TGI,SNB-75 CNS,15.3 µM
same,TGI,HCC-2998 colon,2.64 µM
same,TGI,SK-MEL-28 melanoma,15.1 µM
same,TGI,SK-MEL-2 melanoma,15.6 µM
same,TGI,CAKI-1 renal,9.99 µM
same,TGI,SF-295 CNS,15.4 µM
same,TGI,A498 renal,14.8 µM
same,TGI,UACC-257 melanoma,15 µM
same,TGI,UO-31 renal,11.2 µM
same,TGI,MDA-MB-231 breast,14.8 µM
same,TGI,BT-549 breast,13.4 µM
same,TGI,NCI-H23 lung,15.4 µM
